Test results reported in patent publication US20180318287A1, “Imidazo[4,5-c]quinolin-2-one Compounds and Their Use in Treating Cancer” (ASTRAZENECA AB, priority 2015, published 2018).

Assays:
ATR kinase = target: T1, ATR kinase (Homo sapiens, UniProt Q13535); assay: Assay b): ATR cellular potency (pChk1 Ser345 in HT29 cells after 4NQO); type: cell-based; conditions: HT29 cells, 4NQO, pChk1 Ser345; Table 2; read-out: Assay b) ATR Cell IC50
T1 construct: endogenous in cells; host or cells: HT29 cells (ECACC #85061109)
Method: ATR is a PI 3-kinase-related kinase which phosphorylates multiple substrates on serine or threonine residues in response to DNA damage during or replication blocks. Chk1, a downstream protein kinase of ATR, plays a key role in DNA damage checkpoint control. Activation of Chk1 involves phosphorylation of Ser317 and Ser345 (the latter regarded as the preferential target for phosphorylation/activation by ATR).
The following morning compound of Formula (I) in 100% DMSO were added to assay plates by acoustic dispensing. After 1 h incubation at 37° C. and 5% CO2, 40 nl of 3 mM 4NQO in 100% DMSO was added to all wells by acoustic dispensing, except minimum control wells which were left untreated with 4NQO to generate a null response control. Plates were returned to the incubator for a further 1 h. […] Then 20 μl of 0.1% Triton X100 in PBS was added and incubated for 10 minutes at r.t., to permeabalise cells. Then the plates were washed once with 50 μl/well PBS, using a Biotek EL405 plate washer.
After 2 h incubation at r.t., the plates were washed three times with 50 μl/well PBS, using a Biotek EL405 plate washer, and plates were then sealed with black plate seals until read. Plates were read using an ArrayScan VTI instrument, using an XF53 filter with 10× objective.

ATM kinase = target: T2, ATM kinase (Homo sapiens, UniProt Q13315); assay: Assay a): ATM cellular potency (pATM Ser1981 in irradiated HT29 cells); type: cell-based; conditions: HT29 cells, X-ray irradiation, pATM Ser1981; Table 2; read-out: Assay a) ATM Cell IC50
T2 construct: endogenous in cells; host or cells: HT29 cells (ECACC #85061109)
Method: Most ATM molecules in the cell are rapidly phosphorylated on this site after doses of radiation as low as 0.5 Gy, and binding of a phosphospecific antibody is detectable after the introduction of only a few DNA double-strand breaks in the cell.
The rationale of the p ATM assay is to identify inhibitors of ATM in cells. HT29 cells are incubated with test compounds for 1 hr prior to X-ray-irradiation. 1 h later the cells are fixed and stained for p ATM (Ser1981). The fluorescence is read on the arrayscan imaging platform.
The following morning compounds of Formula (I) in 100% DMSO were added to assay plates by acoustic dispensing. After 1 h incubation at 37° C. and 5% CO2, plates (up to 6 at a time) were irradiated using the X-RAD 320 instrument (PXi) with equivalent to ˜600cGy. Plates were returned to the incubator for a further 1 h. […] Then 20 μl of 0.1% Triton X100 in PBS was added and incubated for 20 minutes at r.t., to permeabalise cells. Then the plates were washed once with […] PBS, using a Biotek EL405 plate washer.
After 1 h incubation at r.t., the plates were washed three times with 50 μl/well PBS, using a Biotek EL405 plate washer, and plates were sealed and kept in PBS at 4° C. until read. Plates were read using an ArrayScan VTI instrument, using an XF53 filter with 10× objective.

T2 sequence (Q13315 whole entry): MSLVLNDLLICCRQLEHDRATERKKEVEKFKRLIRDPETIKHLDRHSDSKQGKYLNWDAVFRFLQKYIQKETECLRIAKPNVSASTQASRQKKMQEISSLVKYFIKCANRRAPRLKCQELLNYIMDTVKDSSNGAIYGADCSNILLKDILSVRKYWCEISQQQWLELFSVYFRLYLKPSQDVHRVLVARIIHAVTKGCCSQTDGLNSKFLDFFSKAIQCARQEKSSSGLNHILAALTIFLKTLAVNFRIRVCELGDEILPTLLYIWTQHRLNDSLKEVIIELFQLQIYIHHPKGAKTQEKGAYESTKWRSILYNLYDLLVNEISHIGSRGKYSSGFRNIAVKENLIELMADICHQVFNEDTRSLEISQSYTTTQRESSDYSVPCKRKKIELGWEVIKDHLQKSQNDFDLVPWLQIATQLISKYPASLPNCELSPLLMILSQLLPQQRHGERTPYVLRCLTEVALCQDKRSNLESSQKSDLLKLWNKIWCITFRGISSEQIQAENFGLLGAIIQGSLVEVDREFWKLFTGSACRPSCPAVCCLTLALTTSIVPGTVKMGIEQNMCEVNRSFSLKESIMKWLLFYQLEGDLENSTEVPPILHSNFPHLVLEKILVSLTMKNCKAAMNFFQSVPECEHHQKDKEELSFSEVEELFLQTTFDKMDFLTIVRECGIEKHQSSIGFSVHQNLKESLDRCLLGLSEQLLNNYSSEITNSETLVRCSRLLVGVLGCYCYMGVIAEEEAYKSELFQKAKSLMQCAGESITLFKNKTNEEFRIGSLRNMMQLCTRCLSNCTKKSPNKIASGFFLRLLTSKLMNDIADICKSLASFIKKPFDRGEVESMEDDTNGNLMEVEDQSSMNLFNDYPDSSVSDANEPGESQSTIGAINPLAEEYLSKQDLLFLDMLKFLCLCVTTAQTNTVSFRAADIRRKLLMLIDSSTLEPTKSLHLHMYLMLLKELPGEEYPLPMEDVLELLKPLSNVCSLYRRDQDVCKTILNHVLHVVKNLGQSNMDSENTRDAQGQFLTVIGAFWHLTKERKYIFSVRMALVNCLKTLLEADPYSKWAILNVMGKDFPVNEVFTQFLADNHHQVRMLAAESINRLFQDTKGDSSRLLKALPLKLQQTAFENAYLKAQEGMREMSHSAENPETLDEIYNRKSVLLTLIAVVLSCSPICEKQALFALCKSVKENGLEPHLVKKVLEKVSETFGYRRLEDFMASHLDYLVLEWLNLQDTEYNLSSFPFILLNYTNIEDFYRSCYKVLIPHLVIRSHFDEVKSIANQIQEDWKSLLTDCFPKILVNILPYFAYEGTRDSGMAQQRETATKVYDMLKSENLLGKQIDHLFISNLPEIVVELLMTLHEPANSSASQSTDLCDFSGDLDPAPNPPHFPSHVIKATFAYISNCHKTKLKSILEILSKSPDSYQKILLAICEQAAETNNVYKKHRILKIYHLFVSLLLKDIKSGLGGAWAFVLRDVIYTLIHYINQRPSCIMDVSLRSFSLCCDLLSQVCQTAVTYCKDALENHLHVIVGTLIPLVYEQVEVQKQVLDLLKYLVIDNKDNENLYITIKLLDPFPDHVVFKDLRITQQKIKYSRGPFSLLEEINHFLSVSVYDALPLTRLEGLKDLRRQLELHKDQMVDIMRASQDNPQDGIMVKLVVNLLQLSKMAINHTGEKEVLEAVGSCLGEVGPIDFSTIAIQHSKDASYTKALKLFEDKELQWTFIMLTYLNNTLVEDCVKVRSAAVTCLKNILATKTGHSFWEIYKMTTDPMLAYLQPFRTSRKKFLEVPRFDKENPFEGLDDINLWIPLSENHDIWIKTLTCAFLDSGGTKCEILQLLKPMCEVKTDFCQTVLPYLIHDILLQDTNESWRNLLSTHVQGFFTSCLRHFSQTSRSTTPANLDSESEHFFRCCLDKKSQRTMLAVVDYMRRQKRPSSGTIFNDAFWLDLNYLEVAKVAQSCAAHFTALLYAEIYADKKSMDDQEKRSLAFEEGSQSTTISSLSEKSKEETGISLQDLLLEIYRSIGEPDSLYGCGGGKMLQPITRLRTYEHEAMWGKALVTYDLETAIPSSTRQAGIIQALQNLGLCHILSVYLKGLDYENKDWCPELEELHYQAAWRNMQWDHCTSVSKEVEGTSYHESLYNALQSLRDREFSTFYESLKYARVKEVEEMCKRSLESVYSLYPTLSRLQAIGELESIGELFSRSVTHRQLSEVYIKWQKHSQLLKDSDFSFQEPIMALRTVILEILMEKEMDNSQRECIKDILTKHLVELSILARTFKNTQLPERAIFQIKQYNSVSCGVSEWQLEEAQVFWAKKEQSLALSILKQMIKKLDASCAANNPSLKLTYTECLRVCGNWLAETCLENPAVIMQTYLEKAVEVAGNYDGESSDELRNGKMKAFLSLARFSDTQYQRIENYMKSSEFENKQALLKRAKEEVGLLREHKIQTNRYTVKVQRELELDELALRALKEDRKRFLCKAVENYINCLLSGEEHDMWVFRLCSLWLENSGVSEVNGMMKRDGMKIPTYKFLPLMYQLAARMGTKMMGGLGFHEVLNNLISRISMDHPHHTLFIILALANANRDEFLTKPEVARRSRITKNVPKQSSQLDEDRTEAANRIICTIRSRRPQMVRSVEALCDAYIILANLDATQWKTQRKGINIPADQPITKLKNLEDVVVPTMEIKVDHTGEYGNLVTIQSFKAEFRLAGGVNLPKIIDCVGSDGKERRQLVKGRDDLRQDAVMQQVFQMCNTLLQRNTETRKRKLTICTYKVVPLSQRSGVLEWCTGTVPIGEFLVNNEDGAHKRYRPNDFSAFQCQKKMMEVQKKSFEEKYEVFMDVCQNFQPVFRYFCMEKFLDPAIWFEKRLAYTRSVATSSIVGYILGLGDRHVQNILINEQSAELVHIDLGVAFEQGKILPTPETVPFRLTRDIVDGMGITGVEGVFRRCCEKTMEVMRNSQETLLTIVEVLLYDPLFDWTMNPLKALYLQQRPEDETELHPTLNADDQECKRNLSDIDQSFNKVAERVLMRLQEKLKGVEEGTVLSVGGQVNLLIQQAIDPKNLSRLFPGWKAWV

SMILES	IC50 (ATR kinase) [nM]	IC50 (ATM kinase) [nM]
CO[C@@H]1CCC[C@H](n2c(=O)n(C)c3cnc4ccc(-c5ccc(OCCCN(C)C)cc5)cc4c32)C1 (relative stereo) [Example 32, 8-[4-[3-(dimethylamino)propoxy]phenyl]-1-[cis-3-methoxycyclohexyl]-3-methyl-imidazo[4,5-c]quinolin-2-one]	> 30000	2.37
CO[C@@H]1CCC[C@H](n2c(=O)n(C)c3cnc4ccc(-c5ccc(OCCCN6CCCC6)cc5)cc4c32)C1 (relative stereo) [Example 38, 1-[cis-3-methoxycyclohexyl]-3-methyl-8-[4-(3-pyrrolidin-1-ylpropoxy)phenyl]imidazo[4,5-c]quinolin-2-one]	19200	2.29
CO[C@H]1CC[C@H](n2c(=O)n(C)c3cnc4cc(F)c(-c5ccc(OCCCN(C)C)cc5)cc4c32)C1 (single isomer, unassigned) [Example 13, 8-[4-[3-(dimethylamino)propoxy]phenyl]-7-fluoro-1-[trans-3-methoxycyclopentyl]-3-methyl-imidazo[4,5-c]quinolin-2-one]	> 30000	1.63
CO[C@@H]1CC[C@@H](n2c(=O)n(C)c3cnc4cc(F)c(-c5ccc(OCCCN(C)C)cc5)cc4c32)C1 (single isomer, unassigned) [Example 14, 8-[4-[3-(dimethylamino)propoxy]phenyl]-7-fluoro-1-[trans-3-methoxycyclopentyl]-3-methyl-imidazo[4,5-c]quinolin-2-one]	> 29400	1.37
CO[C@H]1CCC[C@H](n2c(=O)n(C)c3cnc4ccc(-c5ccc(OCCCN(C)C)cc5)cc4c32)C1 (single isomer, unassigned) [Example 28, 8-[4-[3-(dimethylamino)propoxy]phenyl]-1-[trans-3-methoxycyclohexyl]-3-methyl-imidazo[4,5-c]quinolin-2-one]	11300	0.285
CO[C@H]1CCC[C@H](n2c(=O)n(C)c3cnc4ccc(-c5ccc(OCCCN(C)C)cc5)cc4c32)C1 (single isomer, unassigned) [Example 29, 8-[4-[3-(dimethylamino)propoxy]phenyl]-1-[trans-3-methoxycyclohexyl]-3-methyl-imidazo[4,5-c]quinolin-2-one]	12800	1.64
CO[C@H]1CCC[C@H](n2c(=O)n(C)c3cnc4ccc(-c5ccc(OCCCN6CCCC6)cc5)cc4c32)C1 (single isomer, unassigned) [Example 31, 1-[trans-3-methoxycyclohexyl]-3-methyl-8-[4-(3-pyrrolidin-1-ylpropoxy)phenyl]imidazo[4,5-c]quinolin-2-one]	10900	0.706
CO[C@@H]1CC[C@H](n2c(=O)n(C)c3cnc4cc(F)c(-c5ccc(OCCCN(C)C)cc5)cc4c32)C1 (single isomer, unassigned) [Example 36, 8-[4-[3-(dimethylamino)propoxy]phenyl]-7-fluoro-1-[cis-3-methoxycyclopentyl]-3-methyl-imidazo[4,5-c]quinolin-2-one]	> 30000	5.77
CC(C)n1c(=O)n(C)c2cnc3ccc(-c4ccc(OCCCN(C)C)cc4)cc3c21 [Example 1, 8-[4-[3-(Dimethylamino)propoxy]phenyl]-1-isopropyl-3-methyl-imidazo[4,5-c]quinolin-2-one]	> 30000	–
CC(C)n1c(=O)n(C)c2cnc3ccc(-c4ccc(OCCCN5CCCC5)cc4)cc3c21 [Example 2, 1-isopropyl-3-methyl-8-[4-(3-pyrrolidin-1-ylpropoxy)phenyl]imidazo[4,5-c]quinolin-2-one]	> 30000	0.984
CC(C)n1c(=O)n(C)c2cnc3ccc(-c4ccc(OCCCN5CCC5)cc4)cc3c21 [Example 3, 8-[4-[3-(azetidin-1-yl)propoxy]phenyl]-1-isopropyl-3-methyl-imidazo[4,5-c]quinolin-2-one]	> 30000	0.173
CN(C)CCCOc1ccc(-c2cc3c(cc2F)ncc2c3n([C@H]3CCCOC3)c(=O)n2C)cc1 [Example 10, 8-[4-[3-(dimethylamino)propoxy]phenyl]-7-fluoro-3-methyl-1-[(3S)-tetrahydropyran-3-yl]imidazo[4,5-c]quinolin-2-one]	> 30000	3.92
Cn1c(=O)n([C@@H]2CCCOC2)c2c3cc(-c4ccc(OCCCN5CCCC5)cc4)ccc3ncc21 [Example 16, 3-methyl-8-[4-(3-pyrrolidin-1-ylpropoxy)phenyl]-1-[(3R)-tetrahydropyran-3-yl]imidazo[4,5-c]quinolin-2-one]	> 26000	0.797
CO[C@H]1CC[C@H](n2c(=O)n(C)c3cnc4ccc(-c5ccc(OCCCN6CCCC6)cc5)cc4c32)CC1 [Example 22, 1-(trans-4-methoxycyclohexyl)-3-methyl-8-[4-(3-pyrrolidin-1-ylpropoxy)phenyl]imidazo[4,5-c]quinolin-2-one]	> 10000	0.458
CO[C@H]1CC[C@H](n2c(=O)n(C)c3cnc4ccc(-c5ccc(OCCCN(C)C)cc5)cc4c32)CC1 [Example 26, 8-[4-[3-(dimethylamino)propoxy]phenyl]-1-(trans-4-methoxycyclohexyl)-3-methyl-imidazo[4,5-c]quinolin-2-one]	> 30000	0.467
CO[C@H]1CC[C@@H](n2c(=O)n(C)c3cnc4ccc(-c5ccc(OCCCN6CCCC6)cc5)cc4c32)CC1 [Example 27, 1-(cis-4-methoxycyclohexyl)-3-methyl-8-[4-(3-pyrrolidin-1-ylpropoxy)phenyl]imidazo[4,5-c]quinolin-2-one]	> 18500	0.492
CO[C@H]1CC[C@H](n2c(=O)n(C)c3cnc4ccc(-c5ccc(OCCCN6CCCCC6)cc5)cc4c32)C1 [Example 40, 1-[(1S,3S)-3-methoxycyclopentyl]-3-methyl-8-[4-[3-(1-piperidyl)propoxy]phenyl]imidazo[4,5-c]quinolin-2-one]	–	0.349
CO[C@H]1C[C@@H](n2c(=O)n(C)c3cnc4ccc(-c5ccc(OCCCN6CCCC6)cc5)cc4c32)C1 [Example 41, 1-(cis-3-methoxycyclobutyl)-3-methyl-8-[4-(3-pyrrolidin-1-ylpropoxy)phenyl]imidazo[4,5-c]quinolin-2-one]	> 28800	0.23
Cn1c(=O)n(C2CCOCC2)c2c3cc(-c4ccc(OCCCN5CCCC5)cc4)c(F)cc3ncc21 [Example 46, 7-fluoro-3-methyl-8-[4-(3-pyrrolidin-1-ylpropoxy)phenyl]-1-tetrahydropyran-4-yl-imidazo[4,5-c]quinolin-2-one]	16800	2
